Tests used:
Type in all cases: cell-based
[1] = test system: crypts isolated from human large intestine-derived tissue; test: Organoid establishment from isolated crypts in absence of Matrigel; time-course ATP and passaging; conditions: Lats-IN 10 μM, without Lats-IN died after second passage
Description: Crypts were isolated from human small intestine- and large intestine-derived tissues. The isolated crypts were cultured in the absence of Matrigel (registered trademark) and in the absence or presence of Lats-IN (final concentration: 10 μM).
FIG. 10 is a graph showing the results of a time-course measurement of proliferation of the crypts isolated from the human large intestine-derived tissue over time. The cell proliferation was measured by measuring ATP using a commercially available kit (product name “CellTiter-Glo 3D,” Promega Corporation). The vertical axis of the graph represents luminescence intensity (relative value) indicating the amount of ATP present.

AXIN2 gene = AXIN2 gene expression by quantitative real-time PCR in human large intestine-derived organoids; conditions: absence of Matrigel; Lats-IN 10 μM
Description: Human small intestine-derived organoids and human large intestine-derived organoids were cultured in the absence or presence of Matrigel (registered trademark) and in the absence or presence of Lats-IN (final concentration: 10 μM), and the expression level of the AXIN2 gene, whose expression is regulated by Wnt, was examined by quantitative real-time PCR.
FIG. 16 presents graphs showing the results of quantitative real-time PCR.

[2] = test system: human large intestine-derived organoid; test: Culture of organoids in absence of Matrigel with LATS kinase inhibitor; cell number by ATP (CellTiter-Glo 3D)
Description: (§1) In this experimental example, a human small intestine-derived organoid and human large intestine-derived organoid established in the presence of Matrigel (registered trademark) were cultured in the absence of Matrigel (registered trademark) and in the presence of a LATS kinase inhibitor (final concentration: 10 μM), and their dynamics were observed. The procedure was the same as in Experimental Example 1, except that each organoid was cultured in the absence of Matrigel (registered trademark).
The lower left panel of FIG. 3 is a photograph of a control (Ctrl) human large intestine-derived organoid cultured in the absence of Lats-IN, and the lower center panel of FIG. 3 is a photograph of a human large intestine-derived organoid cultured in the presence of Lats-IN. The scale bar is 100 μm. The lower right panel of FIG. 3 is a graph showing the results of measuring cell number in the human large intestine-derived organoids cultured in the presence of the control (Ctrl) and Lats-IN. The vertical axis of the graph represents luminescence intensity (relative value) indicating the amount of ATP present. […]
(§2) FIG. 8 presents graphs showing the results of measuring the proliferation of the human small intestine-derived and human large intestine-derived organoids in the absence of Lats-IN (Ctrl), in the presence of Lats-IN (Lats-IN), in the presence of Lats-IN and MYF01-37 (Lats-IN+MYF), and in the presence of MYF01-37 (MYF). The cell proliferation was measured by measuring ATP using a commercially available kit (product name “CellTiter-Glo 3D,” Promega Corporation). The vertical axis of the graph represents luminescence intensity (relative value) indicating the amount of ATP present. […]
(§3) FIG. 26 presents graphs showing the results of measuring cell number in each organoid after 6 days of culture by measuring ATP using a commercially available kit (product name “CellTiter-Glo 3D,” Promega Corporation). The vertical axis of the graph represents luminescence intensity (relative value) indicating the amount of ATP present.

[3] = test system: stomach-derived organoids, biliary tract-derived organoids, and mammary gland-derived organoids; test: Culture of organoids derived from various organs in absence of Matrigel; conditions: Lats-IN 10 μM
Description: It was examined whether organoids derived from various organs could be cultured in the absence of Matrigel (registered trademark) and in the absence or presence of Lats-IN (final concentration: 10 μM).
FIG. 11 presents representative photographs showing the results of culturing stomach-derived organoids, biliary tract-derived organoids, and mammary gland-derived organoids in the absence of Matrigel (registered trademark) and Lats-IN (Ctrl), or in the absence of Matrigel (registered trademark) and in the presence of Lats-IN (Lats-IN). The scale bar is 100 μm.

[4] = test system: human small intestine-derived organoid; test: Culture of organoids in absence of Matrigel with LATS kinase inhibitor; cell number by ATP (CellTiter-Glo 3D)
Description: as §1
The upper left panel of FIG. 3 is a photograph of a control (Ctrl) human small intestine-derived organoid cultured in the absence of Lats-IN, and the upper center panel of FIG. 3 is a photograph of a human small intestine-derived organoid cultured in the presence of Lats-IN. The scale bar is 100 μm. […] The vertical axis of the graph represents luminescence intensity (relative value) indicating the amount of ATP present. […]
as §2, §3

[5] = Experimental Example 5, Lats-IN 10 μM alone
[6] = final concentration 10 μM, 7 days of culture, vs control

## O=C(N=c1sccn1Cc1ccccc1)c1c[nH]c2ncccc12 [Lats-IN]
[1]
  passaging and proliferation of isolated crypts (organoid establishment): able to undergo passage almost continuously without cessation of cell proliferation
AXIN2 gene
  expression level of AXIN2: increased to a level equivalent to that in the presence of Matrigel
[2]; [5]
  cell proliferation (ATP luminescence): activated
[2]; [6]
  cell proliferation (cell number, ATP luminescence): significantly activated
[3]
  cell proliferation (photographs): activated
[4]; [5]
  cell proliferation (ATP luminescence): activated
[4]; [6]
  cell proliferation (cell number, ATP luminescence): significantly activated

From patent US20250283049A1, “AGENT FOR CULTURING ORGANOID IN ABSENCE OF EXTRACELLULAR MATRIX” (KEIO UNIVERSITY, priority 2022, published 2025)
